In article doi:10.1101/2022.05.31.494145v5 (biorxiv, 2024):

Tests used:
DENV 3 NS5 MTase = molecular target: T1, DENV 3 NS5 MTase (dengue virus type 3, UniProt A9LID6); experiment: tryptophan fluorescence quenching; assay type: binding
T1 sequence (A9LID6 2491-2755 limits assumed): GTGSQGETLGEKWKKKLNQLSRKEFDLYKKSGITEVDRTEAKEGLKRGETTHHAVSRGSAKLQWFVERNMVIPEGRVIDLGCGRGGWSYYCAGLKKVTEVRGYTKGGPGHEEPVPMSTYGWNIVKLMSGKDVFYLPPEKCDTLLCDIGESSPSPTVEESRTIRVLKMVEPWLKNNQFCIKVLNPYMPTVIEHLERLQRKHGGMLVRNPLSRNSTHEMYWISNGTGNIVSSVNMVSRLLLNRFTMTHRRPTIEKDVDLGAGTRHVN

CHIKV nsP1 = molecular target: T2, CHIKV nsP1 (Chikungunya virus strain S27-African prototype, UniProt Q8JUX6); experiment: tryptophan fluorescence quenching; assay type: binding
T2 sequence (Q8JUX6 1-535): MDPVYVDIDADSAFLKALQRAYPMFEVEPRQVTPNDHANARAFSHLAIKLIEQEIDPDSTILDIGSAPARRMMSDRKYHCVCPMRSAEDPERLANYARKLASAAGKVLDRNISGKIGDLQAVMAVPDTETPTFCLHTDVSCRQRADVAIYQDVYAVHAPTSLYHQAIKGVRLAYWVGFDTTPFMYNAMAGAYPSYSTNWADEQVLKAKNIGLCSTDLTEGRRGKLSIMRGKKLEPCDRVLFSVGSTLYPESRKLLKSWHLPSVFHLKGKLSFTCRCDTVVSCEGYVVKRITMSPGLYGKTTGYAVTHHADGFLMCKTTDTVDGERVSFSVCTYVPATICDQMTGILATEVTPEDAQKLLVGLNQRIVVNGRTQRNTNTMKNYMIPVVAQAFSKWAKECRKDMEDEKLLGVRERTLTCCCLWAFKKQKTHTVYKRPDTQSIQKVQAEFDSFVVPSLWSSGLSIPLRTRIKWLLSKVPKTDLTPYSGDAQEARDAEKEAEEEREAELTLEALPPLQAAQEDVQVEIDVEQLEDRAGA

Row | Compound | Kd (DENV 3 NS5 MTase) [µM] | Kd (CHIKV nsP1) [µM]
1 | O=C(/C=C/c1ccc(O)c(O)c1)OCCc1ccccc1 [CAPE, caffeic acid phenethyl ester] | 37.9 ± 6.32 | 30.6 ± 5.33
2 | Nc1nc2c(ncn2[C@@H]2O[C@H](COP(=O)(O)OP(=O)(O)OP(=O)(O)O)[C@@H](O)[C@H]2O)c(=O)[nH]1 [GTP] | 3.03 ± 1 | 169 ± 21.3
3 | O=c1c(O)c(-c2ccc(O)cc2)oc2c(O)c(O)cc(O)c12 [HC, herbacetin] | 13.3 ± 2.69 | 6.52 ± 0.55
4 | C[S+](CC[C@H](N)C(=O)O)C[C@H]1O[C@@H](n2cnc3c(N)ncnc32)[C@H](O)[C@@H]1O (some centres unmarked) [SAM] | 6.67 ± 2.57 | 10.9 ± 5.15
